The target of this test is T1, human neuropeptide Y5 receptor (Homo sapiens, UniProt Q15761).
T1 construct: starting at base 56 through to base 1393, to express the protein 10 amino acid residues shorter at the amino terminal end; made in house; host or cells: High 5 insect cells (baculovirus, pFASTBAC1 / Bac-to-Bac); membrane preparation
T1 sequence (Q15761 1-445): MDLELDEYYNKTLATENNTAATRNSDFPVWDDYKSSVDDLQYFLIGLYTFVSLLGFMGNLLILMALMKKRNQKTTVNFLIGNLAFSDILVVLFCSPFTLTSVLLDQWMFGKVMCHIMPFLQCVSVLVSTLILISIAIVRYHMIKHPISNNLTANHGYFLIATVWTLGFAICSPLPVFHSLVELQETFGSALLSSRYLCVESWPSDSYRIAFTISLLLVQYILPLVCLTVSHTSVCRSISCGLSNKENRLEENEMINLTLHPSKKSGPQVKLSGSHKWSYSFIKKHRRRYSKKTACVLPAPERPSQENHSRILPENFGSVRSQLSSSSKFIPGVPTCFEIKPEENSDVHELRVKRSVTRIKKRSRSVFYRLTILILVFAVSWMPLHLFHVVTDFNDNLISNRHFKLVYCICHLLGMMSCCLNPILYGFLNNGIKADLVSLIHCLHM
The test is described as follows: neuropeptide Y5 receptor binding assay (125I PYY displacement). The conditions noted are these: 125I PYY binding, membranes of High 5 insect cells expressing human NPY5 receptor. The method, then:
The activity of compounds of the invention was measured in a neuropeptide Y5 receptor binding assay as follows. Compounds were also tested in binding assays for the neuropeptide Y1 and neuropeptide Y2 receptors. Activity against these 2 receptors is contraindicated for a neuropeptide Y5 antagonist.
a) Expression of Human Neuropeptide Y5 Receptor in High 5™ Insect Cells.
High 5™ insect cells were obtained from Invitrogen (catalogue No B855-02) and stored in liquid nitrogen. Cells were revived from liquid nitrogen storage and grown at 28° C. in 100 ml ExCell 405 (JRH Biosciences) serum free medium in a 250 ml conical flask (Corning) agitated at 140 rpm in an Innova 4330 orbital shaker (New Brunswick Scientific). Cultures were routinely sub-cultured every 3-4 days.
High 5™ insect cells were transfected with the human NPY5 receptor as follows. PCR primers were designed against the huNPY5 receptor sequence, Genbank Accession Number U56079 [Gerald et. al. (1996) Nature 382, 168-171], but starting at base 56 through to base 1393, to express the protein 10 amino acid residues shorter at the amino terminal end [see Borowsky et. al. (1998) Regulatory Peptides 75-76, 45-53]. These primers were used to amplify the huNPY5 receptor from human placenta genomic DNA by PCR. […]

As to `CC(CN1CCOCC1)C(=O)Nc1ccc2sc3ccccc3c2c1` (stereo not shown) [Example 16], the concentration for half-maximal inhibition (IC50) stood at 0.094 µM.

(Values after patent publication US7332492B2, “Amino substituted dibenzothiophene derivatives for the treatment of disorders mediated by NP Y5 receptor” (AstraZeneca AB, priority 2000, dated 2008).)
